Reference: patent US8834843B2, “Imaging method” (GE Healthcare Limited, priority 2007, dated 2014)
Numbered stars: 1 amine (or outer) side, 2 acyl side, 3 side chain; on linkers, the order of the positions; unused ones are H or OH. Bridge positions count the residues as written; N and C are the ends. Side chains are listed from the residue outwards. Peptide text beside a SMILES is read from it. * marks the point of attachment. X3 = CC[N+]1=C(/C=C/C=C/C=C2/N(CCCCCC(=O)*)c3ccc4c(S(=O)(=O)O)cc(S(=O)(=O)O)cc4c3C2(C)C)C(C)(C)c2c1ccc1c(S(=O)(=O)O)cc(S(=O)(=O)O)cc21; X4 = CC1=[N+]([O-])[Tc]23(=[O])(=[O])[N](CCC(CCN*)CC[N]2C(C)(C)C(C)=[N+]3[O-])C1(C)C; Glutaryl = O=C(CCCC(=O)[*:2])[*:1]

Assays:
EA-Hy926 membranes = experiment: Competitive binding assay with 125I-echistatin on EA-Hy926 membranes; design: species or system human
Procedure: The inhibition constant of Compound 6 was measured using a previously-described membrane binding assay (Indrevoll et al, Bioorg & Med Chem Lett, 2006, 16, 6190-6193).
In brief, membranes from the human endothelial adenocarcinoma cell line EA-Hy926 were prepared and the Kd calculated for the purified membrane fraction. A competitive binding assay was then established to measure inhibition constants for cold Compound 6. ^125I-echistatin was used as the labelled ligand and cold echistatin as a reference standard.
A total of sixteen dilutions of cold test compound (either cold echistatin or cold Compound 6) were prepared and mixed with a combination of ^125I-echistatin and membrane prior to incubation for 1 hour at 37° C. Following several washes, the bound material was harvested on a filter using a Skatron micro harvester. The filterspots were finally excised and counted in a Packard γ-counter.
The inhibition constants for Compound 3 and Compound 8 were determined using the method described in Example 1. FIG. 3 illustrates binding of ^125I-echistatin versus cold Compound 3, Compound 8 and echistatin on EA-Hy926 membranes.

[1] = system: Activated human hepatic stellate cells, LX-2; experiment: Binding to activated human hepatic stellate cells LX-2
Procedure: Activated human hepatic stellate cells, LX-2 (provided by Prof. Scott L. Friedman, Mount Sinai School of Medicine, New York), were cultured in 12-well plates (Nunc) to confluence in Dulbeccos Modified Eagels Medium containing 10% FBS, streptomycin and glutamine. The cells were washed twice in a cold buffer containing 50 mM Tris, pH 7.4, 150 mM NaCl, 5 mM MnCl2, 1 mM CaCl2 and 0.01% BSA. The cells were further incubated in the buffer containing a trace amount of labelled compound (either 0.1 nM ^125I Compound 6 or 0.1 nM ^125I-echistatin) together with various concentrations of cold compound for 60 min at 4° C. with shaking. Following incubation, the unbound material was removed by washing the cells 3 times with cold buffer. The cells were detached from the wells by adding 0.1M NaOH and transferred to a tube to be counted in a gamma-counter (Packard). FIG. 2 illustrates the observed activity values.

[2] = system: fibrogenic livers in BDL model; experiment: Liver uptake in BDL vs sham rats at 15 days post-op, vs negative control; type: in vivo, rat; settings: one hour post-injection
Procedure: On the appropriate day post surgery BDL and sham animals were removed and put under isoflurane anaesthesia, then each animal was injected with 0.3 ml intravenously (i.v.) via tail vein (˜3MBq). At the appropriate time point post-injection of the test item, each animal was re-anaesthetised with isoflurane, sacrificed by cervical dislocation weighed and the weight recorded via a barcode scanning system. Each animal was dissected and the following organs and tissues were removed and counted using BASIL counter protocol 40 or manual counting:
The BDL and sham animal models were set up as described in Example 3. At 15 days post-operatively, one of Compound 3, Compound 8 or a negative control was administered to each animal and liver uptake assessed as described in Example 3.

Compound	Binding to EA-Hy926 membranes (in words) (EA-Hy926 membranes)	Ki (EA-Hy926 membranes; cold compound vs 125I-echistatin, 1 hour at 37° C., read-out: Ki in the EA-Hy926 membrane assay) [nM]	Binding to activated human hepatic stellate cells (in words) [1]	EC50 ([1]; 0.1 nM 125I labelled compound plus cold compound, 60 min at 4° C., read-out: EC50 in the LX-2 cell assay) [nM]	Liver retention/uptake in BDL compared to sham animals (in words) [2]
N=C(N)NCCC[C@@H]1NC(=O)[C@@H]2CSSC[C@H](NC(=O)[C@H](CC(=O)O)NC(=O)CNC1=O)C(=O)N[C@@H](Cc1ccccc1)C(=O)N[C@H](C(=O)NCCOCCOCCOCCNC(=O)COCC(N)=O)CSCC(=O)N[C@@H](CCCCNC(=O)c1cccc([123I])c1)C(=O)N2 [Compound 6]	binding specifically	~10	binding specifically	~1	
CC[N+]1=C(/C=C/C=C/C=C2/N(CCCCCC(=O)NCCCC[C@@H]3NC(=O)CSC[C@@H](C(=O)NCC(=O)N[C@@H](CCCCNC(=O)CCCC(=O)NCCC4CC[N]5C(C)(C)C(C)=[N+]([O-])[Tc]56(=[O])(=[O])[N](CC4)C(C)(C)C(C)=[N+]6[O-])C(N)=O)NC(=O)[C@H](CCCNC(=N)N)NC(=O)[C@@H]4CSSC[C@H](NC3=O)C(=O)NCC(=O)N[C@@H](CC(=O)O)C(=O)N[C@@H](Cc3ccccc3)C(=O)N4)c3ccc4c(S(=O)(=O)O)cc(S(=O)(=O)O)cc4c3C2(C)C)C(C)(C)c2c1ccc1c(S(=O)(=O)O)cc(S(=O)(=O)O)cc21 (some centres unmarked) [negative control, reference compound] ({CH2CO}-K(X3)CGDFCRCGK([Glutaryl-X4])-NH2; disulfide 2-6; thioether N-8)					no significant difference
